Legend:
[1] = system: FAK phosphorylation in CD44-positive SKOV3 cells; assay: FAK phosphorylation signaling study; format: cell-based, human
Protocol: (§2) Human ovarian SKOV3 cells were bound and cross-linked to A6. […] To determine if this binding influenced CD44-mediated activity, and to determine if a functional relationship existed between A6 and CD44, intracellular signaling studies were conducted.

[2] = system: Mat B-111 syngeneic mammary carcinoma cells; assay: Syngeneic mammary carcinoma model; set-up: species or system Fisher rats; conditions: rat, in vivo
Protocol: (§3) Mammary: The effects of A6 in mammary tumor and metastasis models were investigated. […] The effect of A6 in Fisher rats inoculated with Mat B-111 syngeneic mammary carcinoma cells was evaluated.

[3] = system: CD44-expressing SKOV3 cells; assay: Cell binding to HA coated plates; format: cell-based, human
Source text: (§1) A6 shares sequence homology with the Link Module of CD44. […] This effect was blocked with the anti-CD44 antibody, IM7. […] Without being bound by any particular A6 can induce conformational changes in CD44, resulting in either a lowered affinity of the epitope for DF1485, or preventing DF1485 from binding CD44. The binding of A6 to CD44 results in a modulation of CD44-mediated intracellular signaling and establishes a functional relationship between A6 and CD44 in CD44 expressing cells.

[4] = system: CD44-negative A2780 cells; assay: Boyden chamber migration; format: cell-based, human
[5] = system: A2780 cells; assay: CCK-8 cytotoxicity, A6 plus DDP; format: cell-based, human; conditions: A6 1, 10 or 100 μM 1 h, then 1 h A6 plus DDP; 10% FBS
Protocol: Study Conditions. Drugs: DDP (3.33 mM stock) and A6 (109.8 mM stock); Drug exposure time: 1 hour; Cell line: A2780 and its DDP-resistant subline A2780/CP; Media: RPMI 1640 plus 10% FBS containing 1 mM penicillin/streptomycin; Cytotoxicity Assays: CCK-8 (Cell Counting Kit 8—Dojindo Molecular Technologies).
Tissue culture plates containing 96-well plates were seeded with 4000 cells in 100 μl of media per well. The wells on rows A-D were seeded with A2780 cells, while the wells on rows E-H were seeded with A2780/CP cells. The cells were allowed to attach overnight in a 37° C. in 5% CO2 incubator. Approximately 24 h later medium was removed by aspiration and the cells were exposed to 0, 1, 10 or 100 μM A6 peptide in 100 μl. After 1 h, increasing concentrations of DDP were added to triplicate wells in 100 μl medium. Following a 1 h exposure to the combination of A6 and DDP, the drugs were removed by aspiration. The cells were then allowed to grow for 96 h following which the plates were assayed for relative cell growth with the CCK-8 assay.
(§4) CCK-8 assay. Five μl of CCK-8 stain was added to each well and the plate was incubated at 37° C. incubator for 4 h. The plate was read with a microplate reader at a wavelength of 450 nm.
The assay was performed using triplicate wells for each DDP concentration.

[6] = system: 2008/C13*5.25 cells; assay: CCK-8 cytotoxicity, A6 plus DDP; format: cell-based, human; conditions: A6 1, 10 or 100 μM 1 h, then 1 h A6 plus DDP; 10% FBS
Protocol: Conditions: Drugs: DDP (3.33 mM stock) and A6 (109.8 mM stock); Drug exposure time: 1 hour ; Cell line: 2008 and its DDP-resistant subline 2008/C31*5.25; Media: RPMI 1640 plus 10% FBS containing 1 mM penicillin/streptomycin; Cytotoxicity Assays: CCK-8 (Cell Counting Kit 8—Dojindo Molecular Technologies).
Tissue culture plates containing 96-well plates were seeded with 3000 cells in 100 μl of media per well. The wells on rows A-D were seeded with 2008 cells, while the wells on rows E-H were seeded with 2008/C13*5.25 cells. The cells were allowed to attach overnight in a 37° C. in 5% CO2 incubator. Approximately 24 h later medium was removed by aspiration and the cells were exposed to 0, 1, 10 or 100 μM A6 peptide in 100 μl. After 1 h, increasing concentrations of DDP were added to triplicate wells in 100 μl medium. Following a 1 h exposure to the combination of A6 and DDP, the drugs were removed by aspiration. The cells were then allowed to grow for 96 h following which the plates were assayed for relative cell growth with the CCK-8 assay.
as §4
(§5) The assay was performed using triplicate wells for each DDP concentration. […]

[7] = target: T1, CD44 (Homo sapiens, UniProt P16070); assay: Perturbation of anti-CD44 antibody binding to SKOV3 cells
T1 sequence (P16070 21-742): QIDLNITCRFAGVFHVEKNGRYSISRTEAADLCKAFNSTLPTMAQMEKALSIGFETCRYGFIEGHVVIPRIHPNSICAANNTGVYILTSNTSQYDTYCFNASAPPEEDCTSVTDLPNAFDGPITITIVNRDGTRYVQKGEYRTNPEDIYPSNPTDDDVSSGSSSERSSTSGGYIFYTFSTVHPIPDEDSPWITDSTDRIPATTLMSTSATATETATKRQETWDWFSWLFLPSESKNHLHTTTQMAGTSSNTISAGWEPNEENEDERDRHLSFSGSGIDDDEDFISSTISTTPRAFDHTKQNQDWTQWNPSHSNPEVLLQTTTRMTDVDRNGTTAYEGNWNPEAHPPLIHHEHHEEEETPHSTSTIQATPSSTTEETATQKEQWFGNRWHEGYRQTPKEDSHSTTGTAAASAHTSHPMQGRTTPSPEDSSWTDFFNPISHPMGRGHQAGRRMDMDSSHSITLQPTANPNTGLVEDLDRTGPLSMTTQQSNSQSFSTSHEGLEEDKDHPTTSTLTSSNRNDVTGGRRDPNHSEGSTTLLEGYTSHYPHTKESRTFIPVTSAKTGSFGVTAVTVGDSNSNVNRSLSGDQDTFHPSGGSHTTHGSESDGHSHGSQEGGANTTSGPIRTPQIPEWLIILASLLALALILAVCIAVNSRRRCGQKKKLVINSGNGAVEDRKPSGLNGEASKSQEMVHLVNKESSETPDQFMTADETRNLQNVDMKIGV

[8] = system: ovarian cancer
Protocol: Asymptomatic Progression of Ovarian Cancer: A randomized, double-blind, placebo-controlled Phase 2 clinical trial evaluating A6 in women with asymptomatic CA-125 progression of ovarian cancer (“marker-only relapse” or MOR) was conducted. […] Because patients were clinically asymptomatic at the time of entry, the study was able to be placebo-controlled. The primary endpoints were time to clinical progression of disease and safety of A6. The secondary endpoints included changes in serum CA125. This study enrolled 24 patients: 12 were randomized to daily self-administration of A6 at two doses, and 12 to matching placebo injections. Both groups were followed for up to 9 months.

[9] = system: choroidal neovascularization; assay: Laser-induced choroidal neovascularization (CNV); format: in vivo, mouse; conditions: compared to the non-treated control group
[10] = system: ZAP-70pos B-cell lymphocytes isolated from individual patients; assay: CLL xenograft model; format: in vivo, immune-deficient mice; conditions: vs vehicle control
[11] = target: T1, CD44; assay: Cross-linking, immunoprecipitation and immunoblotting of SKOV3 lysates; format: binding; conditions: SKOV3 cells bound and cross-linked to A6
Protocol: as §2

[12] = system: HEY/C2 (DDP resistant) cells; assay: CCK-8 cytotoxicity of DDP/PTX with or without A6; format: cell-based; conditions: 100 μM A6; 72 hours; 10% FBS
Protocol: The cells were plated in 96-well plates as described and incubated overnight. […] The CCK-8 assay described herein was performed to access cytotoxicity of DDP/PTX.

[13] = system: bovine retinal microvascular endothelial cells; assay: Retinal endothelial cell VE-cadherin / MMP study; format: cell-based
[14] = human, in vivo
[15] = system: CD44-nonexpressing A278 cells; assay: Cell binding to HA coated plates; format: cell-based
Source text: as §1

[16] = system: human CLL B-cell lymphocytes; assay: CLL B-cell lymphocytes in vitro
[17] = system: IGROV-1 cells; assay: CCK-8 cytotoxicity, A6 plus DDP; format: cell-based, human; conditions: A6 1, 10 or 100 μM 1 h, then 1 h A6 plus DDP
Protocol: Drugs: DDP (3.33 mM stock) and A6 (109.8 mM stock); Drug exposure time: 1 hour; Cell line: IGROV-1 and its DDP-resistant subline IGROV-1/CP; Media: RPMI 1640 plus 10% FBS containing 1 mM penicillin/streptomycin; Cytotoxicity Assays: CCK-8 (Cell Counting Kit 8—Dojindo Molecular Technologies).
Tissue culture plates containing 96-well plates were seeded with 4000 cells in 100 μl of media per well. The wells on rows A-D were seeded with IGROV-1 cells, while the wells on rows E-H were seeded with IGROV-1/CP cells. The cells were allowed to attach overnight in a 37° C. in 5% CO2 incubator. Approximately 24 h later medium was removed by aspiration and the cells were exposed to 0, 1, 10 or 100 μM A6 peptide in 100 μl. After 1 h, increasing concentrations of DDP were added to triplicate wells in 100 pa medium. Following a 1 h exposure to the combination of A6 and DDP, the drugs were removed by aspiration. The cells were then allowed to grow for 96 h following which the plates were assayed for relative cell growth with the CCK-8 assay.
CCK-8 assay. Five pi of CCK-8 stain was added to each well and the plate was incubated at 37° C. incubator for 4 h. The plate was read with a microplate reader at a wavelength of 450 nm.
as §5

[18] = system: MDA-MB-231 human mammary carcinoma xenografts; assay: Mammary carcinoma xenograft model; set-up: species or system BALB/c (nu/nu) mice; conditions: mouse, in vivo
Protocol: as §3

[19] = system: endometrial cancer with metastases to lymph nodes and lungs; assay: Compassionate use, endometrial cancer patient; format: in vivo, human
Protocol: A second compassionate use patient was administered A6. The patient was diagnosed with endometrial cancer with metastases to lymph nodes and lungs. The patient underwent a hysterectomy followed by cisplatin and paclitaxel regimen. The patient started A6 1.5 mg/kg/day and continued on this regimen for 2 years with intermittent radiation therapy to the mediastinum to a total dose of 5,000 cGy. […] A6 increased to 2.0 mg/kg/day.

[20] = system: advanced gynecologic cancer; assay: Phase 1b trial in advanced gynecologic cancer
Protocol: Advanced Gynecologic Cancer: A Phase 1b trial, was conducted in women with advanced gynecologic cancer. […] The study used a sequential dose-escalation design, with the lowest-dose group (4 patients) receiving A6 for cycles of 14 days “on” followed by 14 days “off”, a regimen not expected to produce any therapeutic effect. […] Patients continued treatment until disease progression or unacceptable toxicity. Response was evaluated as defined by RECIST and the Gynecologic Cancer Intergroup (GCIG) CA-125 response criteria.

[21] = system: B16-F10 cells; assay: Inhibition of chemotaxis; format: cell-based; conditions: read-out: IC50 for A6 inhibition of chemotaxis
[22] = system: human breast and ovarian cancer cell lines; assay: Boyden chamber chemotaxis; format: cell-based; conditions: responsive cell lines; read-out: IC50 for the inhibition of chemotaxis
Source text: A6 had no effect on the migration of CD44-negative A2780 cells. A6 was also shown to interfere with the binding of only one (DF1485) of the four anti-CD44 antibodies tested.

[23] = Clinical safety profile of A6 (summary); conditions: human, in vivo
[24] = system: human PC-3M-LN4 prostate cancer cells; assay: Orthotopic prostate cancer metastasis model; format: in vivo, BALB/c (nu/nu) mice
Protocol: Prostate: A model of prostate cancer was used to evaluate the antimetastatic effect of A6 in mice. Metastases to lymph nodes were measured following the orthotopic injection of human PC-3M-LN4 prostate cancer cells into the prostates of BALB/c (nu/nu) mice.

## Ac-KPSSPPEE-NH2 [A6, Ac-KPSSPPEE-NH2]
[1]
  FAK phosphorylation: modulate FAK phosphorylation
[2]
  lymph node metastasis: markedly suppressed
[3]
  binding of cells to HA coated plates: increase the binding
[4]
  effect on migration: no effect
[5]
  modulation of sensitivity to DDP: failed to modulate the sensitivity
[6]
  modulation of sensitivity to DDP: failed to modulate the sensitivity
[7]; antibody DF1485
  binding of the anti-CD44 antibody DF1485 to CD44-expressing SKOV3 cells: partial inhibition
[7]; antibody IM7
  binding of the anti-CD44 antibody IM7: did not interfere
[8]; in vivo
  CA125 response: not associated with CA125 response
  complete responses: no complete responses
  patients achieving stable disease: 36%
  safety profile: comparable to that of control (placebo) treatment
[8]; placebo 49 days
  median progression free survival (PFS): 100 days
[9]
  inhibition of new vessel formation: 95%
[10]
  reduction in CLL burden: up to 90%
[11]
  direct interaction with CD44: binding to CD44
[12]
  sensitivity of cells to cisplatin: did not affect sensitivity
  sensitivity of cells to paclitaxel: did not affect sensitivity
[13]
  MMP dependent VE-cadherin degradation and loss of permeability: inhibit MMP dependent VE-cadherin degradation and the loss of permeability
  secretion and activation of MMP-2 and MMP-9: prevented the secretion and activation
[14]
  half-life: 1.8 to 2 h
[15]
  binding of cells to HA coated plates: neither A6 nor IM7 had any effect
[16]
  cytotoxicity in vitro: direct, dose-dependent, cytotoxicity
  expression of CD44 and ZAP-70: down modulates
[17]
  modulation of sensitivity to DDP: failed to modulate the sensitivity
[18]
  metastasis: An inhibition of metastasis was noted
[19]; 10+ years of biannual testing
  clinical outcome: no evidence of disease
[19]; A6 1.5 mg/kg/day for 2 years with intermittent radiation therapy
  disease status: Stable disease
[19]; after A6 dose reduced to 0.25-0.5 mg/kg/day, increased from 25
  CA-125: 71 U/ml
[19]; after A6 increased to 2.0 mg/kg/day
  CA-125: 22 U/ml
[19]; subsequent follow up
  CA-125, subsequent follow up: below 25 U/ml
[20]; continuous treatment
  median time to progression (TTP): 78 days
[20]; in vivo
  safety outcome: no specific toxicity profile
[20]; intermittent therapy (14 days on, 14 days off)
  median time to progression (TTP): 44 days
[20]; patients dosed continuously
  patients with disease stabilization: Greater than 40%
[21]
  IC50: 29 nM
human, in vivo
  adverse events: no systemic drug-related adverse events
  cumulative increase in concentration over time: no cumulative increase in concentration over time was detected
Subcutaneous twice daily for 6 days, day 14
  anti-A6 antibody production: no anti-A6 antibody production was detected
[22]
  IC50: 10 to 100 nM
[23]
  safety profile: no immunogenicity, no dose-limiting toxicities, no serious side-effects
[24]; more than 70% in the control group
  percentage of mice with lymph node metastases: ≥ 22%
[24]; mouse, in vivo
  reduction of lymph node volume: ≤ 70%

Reference: patent US20190381127A1, “COMBINATION THERAPY WITH A6, CHEMOTHERAPEUTIC AGENTS, RADIATION THERAPY, OR A COMBINATION THEREOF FOR THE TREATMENT OF CANCER” (Splash Pharmaceuticals, Inc., priority 2016, published 2019)
